Results reported in the NIST ThermoML archive (doi:10.1021/je0301489).
± gives the expanded uncertainty stated by the source.

Legend:
[1] = 101.33 kPa, Liquid
[2] = refractive index (Na D-line) (dimensionless); details: 101.33 kPa, Liquid

Structure (SMILES)	mass density ([1]; 298.15 K) [kg/m3]	speed of sound ([1]; 298.15 K) [m/s]	viscosity ([1]; 298.15 K) [mPa·s]	mass density ([1]; 303.15 K) [kg/m3]	viscosity ([1]; 303.15 K) [mPa·s]	mass density ([1]; 308.15 K) [kg/m3]	viscosity ([1]; 308.15 K) [mPa·s]	refractive index ([2]; 298.15 K)	refractive index ([2]; 303.15 K)	refractive index ([2]; 308.15 K)
CCOC(=O)C(=O)OCC [diethyl ethanedioate]	1072.9 ± 1.1	1276 ± 3	1.759 ± 0.021	1066.2 ± 1.1	1.581 ± 0.019	1060.8 ± 1.2	1.437 ± 0.017	1.4084 ± 0.0006	1.406 ± 0.0006	1.4034 ± 0.0006
CCOC(=O)c1ccccc1C(=O)OCC [diethyl phthalate]	1115.1 ± 2.1	1446 ± 5	7.926 ± 0.14	1110.2 ± 2.1	6.129 ± 0.11	1105.6 ± 2.1	4.893 ± 0.091	1.5001 ± 0.0009	1.4978 ± 0.0009	1.4958 ± 0.0009
CCCCCCCCOC(=O)c1ccccc1C(=O)OCCCCCCCC [dioctyl 1,2-benzenedicarboxylate]	980.7 ± 1	1421 ± 3	43.03 ± 0.7	977.1 ± 1	30.18 ± 0.5	973.1 ± 1	21.88 ± 0.37	1.485 ± 0.0025	1.4831 ± 0.0025	1.481 ± 0.0025
CCOC(=O)CC(C)=O [ethyl 3-oxobutanoate]	1020.9 ± 1.1	1331 ± 3	1.48 ± 0.019	1014.9 ± 1.2	1.339 ± 0.017	1010.2 ± 1.2	1.239 ± 0.016	1.4166 ± 0.0007	1.4145 ± 0.0007	1.412 ± 0.0007
